Converted amounts (≈) assume the structure as drawn.
Legend:
[1] = test system: Streptococcus pneumoniae 49619 (SPN 49619); test: Minimum Inhibitory Concentration (MIC) determination, agar with 5% sheep blood; format: cell-based; details: Mueller Hinton agar containing 5% sheep blood
Procedure: (§1) Overnight grown cultures of Methicilin resistant Staphylococcus aureus 32 (MRSA 32), Methicilin resistant Staphylococcus epidermidis 118 (MRSE 118), Vancomycin resistant enterococci 303 (VRE 303) in Tryptic Soya broth were diluted in Mueller Hinton Broth to give optical density matching with MacFarland tube 0.5 standard. Cultures were further diluted 1:10 in Mueller Hinton broth. Using Denley's multipoint inoculator, 10^4 cells were deposited on Mueller Hinton agar (Difco) containing range of 2 fold dilutions of test compounds. These plates were incubated for 24 hrs at 35° C. and MIC results recorded. MIC is defined as minimum drug concentration that inhibits test organisms. For determining MIC of test compounds against Streptococcus pneumoniae 49619 (SPN 49619) and Streptococcus pyogenes 801 (SPY 801), Mueller Hinton agar containing 5% sheep blood was employed.

[2] = test system: Streptococcus pyogenes 801 (SPY 801); test: as above; format: cell-based; details: Mueller Hinton agar containing 5% sheep blood
Procedure: as §1

[3] = test system: methicillin resistant Staphylococcus aureus strain MRSA 32; test: Murine Assay Procedure (in vivo efficacy, MRSA 32 infection); details: swiss mice infected intraperitoneally with MRSA 32, oral gavage 1 h after infection, repeat dose 3 hrs later, percentage survival on Day 7
Procedure: Oxazolidinone new chemical entities (NCEs) were evaluated for their in vivo efficacy in a murine infection caused by multi-drug resistant, methicillin resistant Staphylococcus aureus strain, referred to as MRSA 32, a clinical isolate obtained from a hospitalized patient. The procedure used for the murine assay is as follows:
Four weeks old swiss mice of 18-22 gm body weight were infected with MRSA 32 strain suspended in 5% Hog gastric mucin. The infecting dose of bacteria was set at 1-2×10^8 CFU/animal. The infecting dose was administered in 0.5 ml volume injected into peritonial cavity of mice. The treatment with oxazolidinone NCEs was started one hour after infection by administering 100-200 μl of the suspensions of oxazolidinone compounds in 5% Tween 80 by oral gavage. A repeat dose was similarly administered 3 hrs later. Each oxazolidinone NCE was tested at 2-3 different dosages in the range of 2.5 mg/kg to 20 mg/kg. In each dose group 6 mice were included. As an infection control group 12 mice were infected with MRSA 32 strain without giving any treatment. For compounds affording protection of MRSA infected mice, ED50 dosages were calculated on the basis of percentage survival on Day 7 after infection.

[4] = test system: Vancomycin resistant enterococci 303 (VRE 303); test: Minimum Inhibitory Concentration (MIC) determination, agar dilution; format: cell-based; details: Enterococcus, Mueller Hinton agar, 24 hrs at 35° C.
Procedure: as §1

[5] = test system: Methicilin resistant Staphylococcus epidermidis 118 (MRSE 118); test: as above; format: cell-based; details: Mueller Hinton agar, 24 hrs at 35° C.
Procedure: as §1

[6] = test system: Methicilin resistant Staphylococcus aureus 32 (MRSA 32); test: as above; format: cell-based; details: Mueller Hinton agar, 24 hrs at 35° C.
Procedure: as §1

SMILES | MIC [1] [µg/mL] | MIC [2] [µg/mL] | MIC [4] [µg/mL] | MIC [5] [µg/mL] | MIC [6] [µg/mL] | ED50 [3] [mg/kg]
CS(=O)(=O)OC[C@H]1CN(c2ccc(N3CCC(=O)CC3)c(F)c2)C(=O)O1 [Example 168, (R)—N-{3-[4-(4-oxo-piperidin-1-yl)-3-fluorophenyl]-2-oxo-oxazolidin-5-ylmethyl}-methanesulfonate] | 4 (≈ 10.4 µM) | 4 (≈ 10.4 µM) | 4 (≈ 10.4 µM) | 2 (≈ 5.18 µM) | 4 (≈ 10.4 µM) | 10
CC(=O)NC[C@H]1CN(c2ccc(N3CCC(O)(CN=[N+]=[N-])CC3)cc2)C(=O)O1 [Example 178, (S)—N-{3-[4-(4-azidomethyl-4-hydroxy-piperidin-1-yl)-phenyl]-2-oxo-oxazolidin-5-ylmethyl}-acetamide] | 4 (≈ 10.3 µM) | 4 (≈ 10.3 µM) | 8 (≈ 20.6 µM) | 2 (≈ 5.15 µM) | 4 (≈ 10.3 µM) | 10
CS(=O)(=O)OC[C@H]1CN(c2ccc(N3CCC(O)CC3)c(F)c2)C(=O)O1 [Example 172, (R)—N-{3-[4-(4-hydroxy-piperidin-1-yl)-3-fluorophenyl]-2-oxo-oxazolidin-5-ylmethyl}-methanesulfonate] | > 8 | > 8 | 16 (≈ 41.2 µM) | 8 (≈ 20.6 µM) | 8 (≈ 20.6 µM) | 10
CS(=O)(=O)NCC1CN(c2ccc(N3CCC(O)(CN=[N+]=[N-])CC3)c(F)c2)C(=O)O1 (stereo in doubt) [Example 40, (S)—N-{3-[4-(4-Azidomethyl-4-hydroxypiperidin-1-yl)-3-fluorophenyl]-2-oxo-oxazolidin-5-ylmethyl}-methanesulfonamide] | > 8 | > 8 | > 16 | 8 (≈ 18.1 µM) | 8 (≈ 18.1 µM) | 10
CC(=O)NC[C@H]1CN(c2ccc(N3CCC4(CC3)NCC[S+]4[O-])c(F)c2)C(=O)O1 (stereo partly drawn) [Example 112, (S)—N-{3-[4-(4,8-diaza-1-sulfinyl-spiro[4.5]dec-8-yl)-3-fluorophenyl]-2-oxo-oxazolidin-5-ylmethyl}-acetamide] | 2 (≈ 4.71 µM) | 2 (≈ 4.71 µM) | 2 (≈ 4.71 µM) | 1 (≈ 2.36 µM) | 4 (≈ 9.42 µM) | 10
CC(=O)NC[C@H]1CN(c2ccc(N3CCC4(CC3)COCCCO4)c(F)c2)C(=O)O1 [Example 164] | 4 (≈ 9.49 µM) | 4 (≈ 9.49 µM) | 8 (≈ 19 µM) | 2 (≈ 4.75 µM) | 4 (≈ 9.49 µM) | 10
CC(=O)NC[C@H]1CN(c2ccc(N3CCC4(CC3)COCCO4)c(F)c2)C(=O)O1 [Example 160, (S)—N-{3-[4-(1,4-dioxa-9-aza-spiro[5.5]undec-9-yl)-3-fluorophenyl]-2-oxo-oxazolidin-5-ylmethyl}-acetamide] | 4 (≈ 9.82 µM) | 4 (≈ 9.82 µM) | 8 (≈ 19.6 µM) | 1 (≈ 2.45 µM) | 4 (≈ 9.82 µM) | 10
C=CCC1(O)CCN(c2ccc(N3C[C@H](COS(C)(=O)=O)OC3=O)cc2F)CC1 [Example 41] | 16 (≈ 37.3 µM) | 16 (≈ 37.3 µM) | 8 (≈ 18.7 µM) | 8 (≈ 18.7 µM) | 8 (≈ 18.7 µM) | 10
CC(=O)NC[C@H]1CN(c2ccc(N3CCC4(CC3)C[S+]([O-])CCO4)c(F)c2)C(=O)O1 (stereo partly drawn) [Example 162, (S)—N-{3-[4-(1-oxa-4-sulfinyl-9-aza-spiro[5.5]undec-9-yl)-3-fluorophenyl]-2-oxo-oxazolidin-5-ylmethyl}-acetamide] | 4 (≈ 9.1 µM) | 4 (≈ 9.1 µM) | – | – | 8 (≈ 18.2 µM) | 10

More lines, main results first:

MIC [1] [µg/mL] | MIC [2] [µg/mL] | MIC [4] [µg/mL] | MIC [5] [µg/mL] | MIC [6] [µg/mL] | SMILES | ED50 [3] [mg/kg]
2 | 2 | 2 | 1 | 4 | CC(=O)NC[C@H]1CN(c2ccc(N3CCC4(CC3)CC4C#N)c(F)c2)C(=O)O1 (mixture of isomers) [Example 97, (1RS,5S)—N-{3-[4-(1-cyano-6-aza-spiro[2.5]oct-6-yl)-3-fluorophenyl]-2-oxo-oxazolidin-5-ylmethyl}-acetamide] | 5
2 (≈ 4.9 µM) | 2 (≈ 4.9 µM) | 2 (≈ 4.9 µM) | 1 (≈ 2.45 µM) | 2 (≈ 4.9 µM) | CC(=O)NC[C@H]1CN(c2ccc(N3CCC(F)(CN=[N+]=[N-])CC3)c(F)c2)C(=O)O1 [Example 4, (S)—N-{3-[4-(4-Fluoro-4-azidomethylpiperidin-1-yl)-3-fluorophenyl]-2-oxo-oxazolidin-5-ylmethyl}-acetamide] | 10
1 (≈ 2.56 µM) | 1 (≈ 2.56 µM) | 4 (≈ 10.2 µM) | 1 (≈ 2.56 µM) | 4 (≈ 10.2 µM) | CC(=O)NC[C@H]1CN(c2ccc(N3CCC(O)(CC#N)CC3)c(F)c2)C(=O)O1 [Example 21, (S)—N-{3-[4-(4-Cyanomethyl-4-hydroxypiperidin-1-yl)-3-fluorophenyl]-2-oxo-oxazolidin-5-ylmethyl}-acetamide] | 2.5
2 (≈ 5.06 µM) | 2 (≈ 5.06 µM) | 4 (≈ 10.1 µM) | 4 (≈ 10.1 µM) | 8 (≈ 20.2 µM) | COCC1(O)CCN(c2ccc(N3C[C@H](CNC(C)=O)OC3=O)cc2F)CC1 [Example 33, (S)—N-{3-[4-(4-Methoxymethyl-4-hydroxypiperidin-1-yl)-3-fluorophenyl]-2-oxo-oxazolidin-5-ylmethyl}-acetamide] | 10
> 16 | > 16 | > 32 | > 32 | 8 (≈ 21.9 µM) | CC(=O)NC[C@H]1CN(c2ccc(N3CCC(C)(O)CC3)c(F)c2)C(=O)O1 [Example 17, (S)—N-{3-[4-(4-Methyl-4-hydroxypiperidin-1-yl)-3-fluorophenyl]-2-oxo-oxazolidin-5-ylmethyl}-acetamide] | 10
2 (≈ 4.92 µM) | 2 (≈ 4.92 µM) | 2 (≈ 4.92 µM) | 1 (≈ 2.46 µM) | 4 (≈ 9.84 µM) | CC(=O)NC[C@H]1CN(c2ccc(N3CCC(O)(CN=[N+]=[N-])CC3)c(F)c2)C(=O)O1 [Example 25, (S)—N-{3-[4-(4-Azidomethyl-4-hydroxypiperidin-1-yl)-3-fluorophenyl]-2-oxo-oxazolidin-5-ylmethyl}-acetamide] | 5
– | – | 8 (≈ 21.2 µM) | 4 (≈ 10.6 µM) | 8 (≈ 21.2 µM) | COCC1(O)CCN(c2ccc(N3C[C@H](CNC(C)=O)OC3=O)cc2)CC1 [Example 177, (S)—N-{3-[4-(4-methoxymethyl-4-hydroxy-piperidin-1-yl)-phenyl]-2-oxo-oxazolidin-5-ylmethyl}-acetamide] | 10
2 (≈ 5.93 µM) | 2 (≈ 5.93 µM) | 2 (≈ 5.93 µM) | 1 (≈ 2.96 µM) | 2 (≈ 5.93 µM) | CC(=O)NC[C@H]1CN(c2ccc(N3CCOCC3)c(F)c2)C(=O)O1 [Linezolid, reference compound] | 5
2 (≈ 4.71 µM) | 2 (≈ 4.71 µM) | 8 (≈ 18.8 µM) | 2 (≈ 4.71 µM) | 8 (≈ 18.8 µM) | CC(=O)NC[C@H]1CN(c2ccc(N3CCC(F)(CNC(C)=O)CC3)c(F)c2)C(=O)O1 [Example 6, (S)—N-{3-[4-(4-Fluoro-4-(N-acetylamino)-methylpiperidin-1-yl)-3-fluorophenyl]-2-oxo-oxazolidin-5-ylmethyl}-acetamide] | 10
2 (≈ 5.08 µM) | 2 (≈ 5.08 µM) | 4 (≈ 10.2 µM) | 2 (≈ 5.08 µM) | 4 (≈ 10.2 µM) | CC(=O)NC[C@H]1CN(c2ccc(N3CCC4(CC3)COCO4)c(F)c2)C(=O)O1 [Example 125, (S)—N-{3-[4-(1,3-dioxa-8-aza-spiro[4.5]dec-8-yl)-3-fluorophenyl]-2-oxo-oxazolidin-5-ylmethyl}-acetamide] | 10
1 (≈ 2.17 µM) | 1 (≈ 2.17 µM) | 2 (≈ 4.34 µM) | 0.5 (≈ 1.09 µM) | 1 (≈ 2.17 µM) | CC(=O)NC[C@H]1CN(c2ccc(N3CCC(F)(CNS(C)(=O)=O)CC3)c(F)c2)C(=O)O1 [Example 7, (S)—N-{3-[4-(4-Fluoro-4-methanesulfonamidomethylpiperidin-1-yl)-3-fluorophenyl]-2-oxo-oxazolidin-5-ylmethyl}-acetamide] | 5
0.25 (≈ 0.542 µM) | 0.25 (≈ 0.542 µM) | 2 (≈ 4.33 µM) | 0.5 (≈ 1.08 µM) | 1 (≈ 2.17 µM) | CC(=O)NC[C@H]1CN(c2ccc(N3CCC(F)(COS(C)(=O)=O)CC3)c(F)c2)C(=O)O1 [Example 12, (S)—N-{3-[4-(4-Fluoro-4-methanesulfonyloxymethylpiperidin-1-yl)-3-fluorophenyl]-2-oxo-oxazolidin-5-ylmethyl}-acetamide] | 2.5
